Assay results as given in US6586470B1, “Insecticidal composition” (Ecoval INC, priority 1998, dated 2003).

Tested on: Northern corn root worm adults (diabrotica longiscornis)
Assay: Spray test on Northern corn root worm adults
Type: in vivo
Details: insects sprayed, inspected after 24 hours, amounts in grams/litre
Procedure: The insecticidal compositions being tested were formulated in aqueous solution. The amounts of the ingredients are specified in the examples, and unless stated otherwise, are expressed in grams/litre. The compositions were tested on Northern corn root worm adults (diabrotica longiscornis). The insects were treated and tested as indicated above.

`CC(=O)O` [Sample 1, acetic acid] was tested, and the “% Control” value was 0%, the Alive was 10 and the Dead was 0.

For `O=C(O)CC(O)(CC(=O)O)C(=O)O` [Sample 2, citric acid], the “% Control” value was 0%, the Alive was 10 and the Dead was 0.

For `CC(=O)O` [Sample 15, acetic acid], the “% Control” value was 0%, the Alive was 10 and the Dead was 0.

`CC(=O)O` [Sample 18, acetic acid] was tested, and the “% Control” value was 30%, the Alive was 7 and the Dead was 3. For the same compound, the “% Control” value (listed as acetic acid at 50 g/l) was “partial control”.

In the case of `O=C(O)CC(O)(CC(=O)O)C(=O)O` [Sample 19, citric acid], the “% Control” value is reported as 20%, the Alive is reported as 8 and the Dead is reported as 2. For the same compound, the “% Control” value (listed as citric acid at 25 g/l) was “partial control”.
